Experimental data from patent publication US11739068B2, “Polymorphs of N-[(3-fluoro-4-methoxypyridin-2-yl)methyl]-3-(methoxymethyl)-1-({4-[(2-oxopyridin-1-yl)methyl]phenyl}methyl)pyrazole-4-carboxamide and salts thereof” (KALVISTA PHARMACEUTICALS LIMITED, priority 2016, dated 2023).

Tests used:
Assay type in all cases: physicochemical
[1] = Visual aqueous solubility
Description: Form 1 (10 mg) was weighed into a glass vial and water was added in 100 μL portions up to 3 mL then 1 mL portions thereafter. Solubility was assessed visually following a brief period of equilibration.
Form 18 (10 mg) was weighed into a glass vial and water was added in 100 μL portions up to 3 mL then 1 mL portions thereafter. Solubility was assessed visually following a brief period of equilibration.
Form 8 (10 mg) was weighed into a glass vial and water was added in 100 μL portions up to 3 mL then 1 mL portions thereafter. Solubility was assessed visually following a brief period of equilibration.
Form 15 (10 mg) was weighed into a glass vial and water was added in 100 μL portions up to 3 mL then 1 mL portions thereafter. Solubility was assessed visually following a brief period of equilibration.
Form 16 (10 mg) was weighed into a glass vial and water was added in 100 μL portions up to 3 mL then 1 mL portions thereafter. Solubility was assessed visually following a brief period of equilibration.

Slurry studies = settings: 72 hrs; for XRPD of solid after slurry versus starting form: 90/10 IPA/water, ambient temperature
Description: Form 1 (20 mg) was suspended in 90/10 IPA/water (200 μL or […]) and shaken at ambient temperature for 72 hrs. The supernatant was evaporated rather than filtered due to the small volume and the resulting solid was examined by XRPD (FIG. 6).
The supernatant was evaporated rather than filtered due to the small volume and the resulting solid was examined by XRPD (FIG. 28).
The supernatant was evaporated rather than filtered due to the small volume and the resulting solid was examined by XRPD (FIG. 34).
The supernatant was evaporated rather than filtered due to the small volume and the resulting solid was examined by XRPD (FIG. 40).

[2] = Gravimetric Vapour Sorption (GVS)
Description: Gravimetric Vapour Sorption (GVS) data were collected using the following method: Approximately 10 mg of sample was placed into a wire-mesh vapour sorption balance pan and loaded into an ‘IgaSorp’ vapour sorption balance (Hiden Analytical Instruments). The sample was then dried by maintaining a 0% humidity environment until no further weight change was recorded. Subsequently, the sample was then subjected to a ramping profile from 0-90% RH at 10% RH increments, maintaining the sample at each step until equilibration had been attained (99% step completion). Upon reaching equilibration, the % RH within the apparatus was ramped to the next step and the equilibration procedure repeated. After completion of the sorption cycle, the sample was then dried using the same procedure. The weight change during the sorption/desorption cycles were then monitored, allowing for the hygroscopic nature of the sample to be determined.

Row | XRPD of solid after slurry versus starting form (Slurry studies) | %-Wt (dry basis) ([2]; adsorption, about 0 %-RH) [%] | %-Wt (dry basis) ([2]; adsorption, about 10 %-RH) [%] | %-Wt (dry basis) ([2]; adsorption, about 20 %-RH) [%] | %-Wt (dry basis) ([2]; adsorption, about 30 %-RH) [%] | %-Wt (dry basis) ([2]; adsorption, about 40 %-RH) [%] | %-Wt (dry basis) ([2]; adsorption, about 50 %-RH) [%] | %-Wt (dry basis) ([2]; adsorption, about 60 %-RH) [%] | %-Wt (dry basis) ([2]; adsorption, about 70 %-RH) [%] | %-Wt (dry basis) ([2]; adsorption, about 80 %-RH) [%] | %-Wt (dry basis) ([2]; adsorption, about 90 %-RH) [%] | %-Wt (dry basis) ([2]; desorption, about 0 %-RH) [%] | %-Wt (dry basis) ([2]; desorption, about 5 %-RH) [%] | %-Wt (dry basis) ([2]; desorption, about 15 %-RH) [%] | %-Wt (dry basis) ([2]; desorption, about 25 %-RH) [%] | %-Wt (dry basis) ([2]; desorption, about 35 %-RH) [%] | %-Wt (dry basis) ([2]; desorption, about 45 %-RH) [%] | %-Wt (dry basis) ([2]; desorption, about 55 %-RH) [%] | %-Wt (dry basis) ([2]; desorption, about 65 %-RH) [%] | %-Wt (dry basis) ([2]; desorption, about 75 %-RH) [%] | Compound | other results
1 | no change in the X-ray pattern | 0.03946 | 0.4404 | 0.6163 | 0.7771 | 0.6383 | 0.8735 | 1.214 | 2.0577 | 3.99 | 14.16 | 0.000552 | 0.07837 | 0.2289 | 0.3947 | 0.2459 | 0.5639 | 0.9496 | 1.643 | 3.436 | COCc1nn(Cc2ccc(Cn3ccccc3=O)cc2)cc1C(=O)NCc1nccc(OC)c1F.O=S(=O)(O)O [Form 8, N-[(3-fluoro-4-methoxypyridin-2-yl)methyl]-3-(methoxymethyl)-1-({4-[(2-oxopyridin-1-yl)methyl]phenyl}methyl)pyrazole-4-carboxamide sulfate] | Aqueous solubility (in words) [1]: excellent aqueous solubility; solubility ([1]; water, thermodynamic from solid): ~100 mg/mL; %-Wt (dry basis) ([2]; desorption, about 85 %-RH): 6.295%; Increase in water content by GVS (hygroscopicity, in words) ([2]; up to 70% relative humidity): only a relatively gradual increase in water content
2 | different to that of Form 18 | 0.000338 | 0.2364 | 0.3723 | 0.5037 | 0.6618 | 0.9246 | 9.109 | 9.603 | 13.9262 | 66.83 | 0.35 | 2.227 | 3.448 | 4.993 | 7.125 | 9.624 | 12.7659 | 17.34 | 24.5 | COCc1nn(Cc2ccc(Cn3ccccc3=O)cc2)cc1C(=O)NCc1nccc(OC)c1F.Cl [Form 18, N-[(3-fluoro-4-methoxypyridin-2-yl)methyl]-3-(methoxymethyl)-1-({4-[(2-oxopyridin-1-yl)methyl]phenyl}methyl)pyrazole-4-carboxamide hydrochloride] | %-Wt (dry basis) ([2]; desorption, about 85 %-RH): 40.16%

Row | Compound | XRPD of solid after slurry versus starting form (Slurry studies) | %-Wt (dry basis) ([2]; adsorption, about 0 %-RH) [%] | %-Wt (dry basis) ([2]; adsorption, about 10 %-RH) [%] | %-Wt (dry basis) ([2]; adsorption, about 20 %-RH) [%] | %-Wt (dry basis) ([2]; adsorption, about 30 %-RH) [%] | %-Wt (dry basis) ([2]; adsorption, about 40 %-RH) [%] | %-Wt (dry basis) ([2]; adsorption, about 50 %-RH) [%] | %-Wt (dry basis) ([2]; adsorption, about 60 %-RH) [%] | %-Wt (dry basis) ([2]; adsorption, about 70 %-RH) [%] | %-Wt (dry basis) ([2]; adsorption, about 80 %-RH) [%] | %-Wt (dry basis) ([2]; adsorption, about 90 %-RH) [%] | %-Wt (dry basis) ([2]; desorption, about 0 %-RH) [%] | %-Wt (dry basis) ([2]; desorption, about 5 %-RH) [%] | %-Wt (dry basis) ([2]; desorption, about 15 %-RH) [%] | %-Wt (dry basis) ([2]; desorption, about 25 %-RH) [%] | %-Wt (dry basis) ([2]; desorption, about 35 %-RH) [%] | %-Wt (dry basis) ([2]; desorption, about 45 %-RH) [%] | %-Wt (dry basis) ([2]; desorption, about 55 %-RH) [%] | %-Wt (dry basis) ([2]; desorption, about 65 %-RH) [%] | %-Wt (dry basis) ([2]; desorption, about 75 %-RH) [%] | other results
3 | N-[(3-fluoro-4-methoxypyridin-2-yl)methyl]-3-(methoxymethyl)-1-({4-[(2-oxopyridin-1-yl)methyl]phenyl}methyl)pyrazole-4-carboxamide edisylate [Form 15] | no differences in X-ray pattern |  |  |  |  |  |  |  |  |  |  |  |  |  |  |  |  |  |  |  | Aqueous solubility ([1]; water, assessed visually): ~100 mg/mL; Aqueous solubility, repeat using less water ([1]; water, dissolved in 0.05 mL): > 200 mg/mL; Result of water slurry (Slurry studies; 20 mg in deionised water (200 μL)): complete dissolution of the sample
4 | N-[(3-fluoro-4-methoxypyridin-2-yl)methyl]-3-(methoxymethyl)-1-({4-[(2-oxopyridin-1-yl)methyl]phenyl}methyl)pyrazole-4-carboxamide edisylate [Form 16] |  | 1.612 | 2.367 | 2.626 | 2.834 | 3.045 | 3.351 | 7.516 | 9.935 | 15.98 | 94.26 | 0.00047 | 2.866 | 4.495 | 6.541 | 9.564 | 12.94 | 17.21 | 23.22 | 33.16 | %-Wt (dry basis) ([2]; desorption, about 85 %-RH): 57.4%
